Measured values as given in US20250072419A1, “SYSTEMS AND METHODS FOR APPLICATION OF ACTIVE INGREDIENTS TO CANNABIS” (Hazel Technologies, Inc., priority 2020, published 2025).
Where “and” joins values, the source holds several entries; their conditions need not be identical. Equal entries are not always repeated.

What was measured:
Format in all cases: in vivo
[1] = system: female Cannabis plants, variety 'B' (Jack's Girl, 50% sativa and 50% indica); test: development of male sex organs on female plants after 1-MCP fumigation, variety B; settings: for Flower clusters displaying male organs 30 days after treatment 3 (%): 36.3 ppm 1-MCP
Experimental: (§1) To examine the effect of 1-MCP exposure, six genetic replicates of a first variety of Cannabis (variety ‘A’) and six genetic replicates of a second variety of Cannabis (variety ‘B’) were grown under greenhouse conditions for a period of four weeks, then transferred to growth chamber conditions with a 12 hour photoperiod for three weeks to induce flower formation. Variety A was from a hybrid strain of 15% sativa and 85% indica bred by BC Bud Depot under the strain name Shiatsu. Variety B was from a hybrid strain of 50% sativa and 50% indica bred by Spectrum under the strain name Jack's Girl. Greenhouse conditions and growth chamber conditions are detailed in Table 1. Next, three of the genetic replicates of each variety were treated with 1-MCP via fumigation in a 295 cubic foot growth chamber for 18 hours using a source of the 1-MCP. The source of the 1-MCP was 250 g of a composition comprising 1-MCP in an amount of 2 wt % loaded in activated carbon as a porous adsorbent material. The treatment was initially activated via the addition of 0.07 gallons of liquid water to the composition, which accelerated release of 1-MCP and established an atmosphere within the growth chamber of 36.3 ppm 1-MCP. Twelve days later, the 18-hour 1-MCP treatment was repeated, and the treatment was repeated again the next day. Control groups of each variety were watered and exposed to identical conditions except that they were never fumigated with 1-MCP.
Stamens were not observed in variety ‘A’ genetic replicates or in either control group.

Cannabis variety B [2] = test: cannabinoid profile of floral tissue by HPLC after 1-MCP treatment, variety B
Experimental: as §1, with “The treatment was initially activated via the addition of 0.07 gallons of liquid water to the composition, which accelerated release of 1-MCP and established an atmosphere within the growth chamber of 36.3 ppm 1-MCP. Twelve days later, the 18-hour 1-MCP treatment was repeated, and the treatment was repeated again the next day. Control groups of each variety were watered and exposed to identical conditions except that they were never fumigated with 1-MCP.” left out
Cannabinoids concentrations were measured in the genetic replicates from variety A and variety B of Example 1 at three time-points: T1—two days before the first treatment with 1-MCP; T2—one week after the first treatment with 1-MCP; and T3—after all 1-MCP treatments, once the genetic replicates had reached full plant maturity. […]

[3] = system: female Cannabis plants, variety 'A' (Shiatsu, 15% sativa and 85% indica); test: development of male sex organs / phenotype on female plants after 1-MCP fumigation, variety A
Experimental: as §1, with “Control groups of each variety were watered and exposed to identical conditions except that they were never fumigated with 1-MCP.” left out

Cannabis variety B [4] = test: total biomass and flower biomass of dried plants after 1-MCP treatment, variety B
Experimental: as §1
(§2) To examine the effect of 1-MCP exposure, the genetic replicates from variety A and variety B of Example 1 were measured (i) after plants were dried and (ii) after plants were dried and trimmed, reflecting flower biomass. Measurement (i) provided the total biomass of each genetic replicate, while measurement (ii) provided the mass of consumer-ready product. The drying of the plants was performed by placing the plants into a drying chamber (90° F., 16% relative humidity) for 72 hours prior to measurement and/or trimming.

Cannabis variety A [5] = test: cannabinoid profile of floral tissue by HPLC after 1-MCP treatment, variety A
Experimental: as §1
Cannabinoids concentrations were measured in the genetic replicates from variety A and variety B of Example 1 at three time-points: T1—two days before the first treatment with 1-MCP; T2—one week after the first treatment with 1-MCP; and T3—after all 1-MCP treatments, once the genetic replicates had reached full plant maturity. At each timepoint, three samples of floral tissue were collected from each genetic replicate and frozen overnight. To prepare samples of floral tissue for high performance liquid chromatography (HPLC) analysis, frozen floral tissue was ground, extracted in HPLC-grade methanol, and filtered. HPLC was performed on the filtered methanol, providing a cannabinoid profile for each sample of floral tissue.
Analysis of Variance (ANOVA) was performed to evaluate the effect of 1-MCP on cannabinoid content under each set of experimental conditions.

Cannabis variety A [6] = test: total biomass and flower biomass of dried plants after 1-MCP treatment, variety A
Experimental: as §1, §2

[7] = Treatment, single specimens, dried and trimmed plants
[8] = Treatment, single specimens, dried plants

CC1=CC1 [1-MCP, 1-methylcyclopropene]
stamen growth on female floral tissue ([1]; 15 days after final fumigation (FIG. 5)): presence of multiple stamens
stamen growth on female floral tissue ([1]; 19 days after final fumigation (FIG. 6)): multiple stamens
Flower clusters displaying male organs 30 days after treatment 3 (%) ([1]; Plant 1, three 18 h fumigations): 97%
Flower clusters displaying male organs 30 days after treatment 3 (%) ([1]; Plant 2, three 18 h fumigations): 100%
Flower clusters displaying male organs 30 days after treatment 3 (%) ([1]; Plant 3, three 18 h fumigations): 86%
stamen growth on female floral tissue ([1]; five days after final fumigation (FIG. 4)): further development of stamen growth
flower clusters displaying staminate growth ([1]; thirty days after the final 1-MCP treatment): 80-100%
stamen growth on female floral tissue ([1]; three days after the final fumigation (FIG. 3)): stamens were observed
deleterious effects on the overall profile of cannabinoids (Cannabis variety B [2]): no deleterious effects
total cannabinoid concentration, treated versus control (ANOVA) (Cannabis variety B [2]; mature plants (T3) (FIG. 8)): no statistically significant difference
staminate growth ([3]; variety A genetic replicates treated with 1-MCP): Staminate growth was not observed
plants observed to have purple leaves ([3]; variety A, three 1-MCP-treated plants (FIG. 7), none of three controls): two of three
decrease in flower biomass versus control (Cannabis variety B [4]): ~2%
decrease in total biomass versus control (Cannabis variety B [4]): ~2%
deleterious effect on the biomass (Cannabis variety B [4]): did not have a deleterious effect
Flower Biomass Group Mean (Cannabis variety B [4]; Treatment, mean of 3 specimens, control mean 102.3): 100.3 g
Total Biomass Group Mean (Cannabis variety B [4]; Treatment, mean of 3 specimens, control mean 118.3): 115.6 g
Flower Biomass (Cannabis variety B [4]; [7]): 95 g and 106 g and 100 g
Total Biomass (Cannabis variety B [4]; [8]): 111 g and 121 g and 115 g
deleterious effects on the overall profile of cannabinoids (Cannabis variety A [5]; variety A): no deleterious effects
THCA, THCVA and CBGA concentrations, treated versus control (ANOVA) (Cannabis variety A [5]; variety A (FIGS. 9A-C)): A few statistically significant differences
total cannabinoid concentration, treated versus control (ANOVA) (Cannabis variety A [5]; variety A, mature plants (T3) (FIG. 8)): no statistically significant difference
total cannabinoid concentration, treated versus control (ANOVA) (Cannabis variety A [5]; variety A, timepoint T2, one week after the first treatment (FIG. 8)): statistically significant difference
deleterious effect on the biomass (Cannabis variety A [6]): did not have a deleterious effect
increase in flower biomass over the control group (Cannabis variety A [6]): ~10%
increase in total biomass over the control group (Cannabis variety A [6]): ~22%
Flower Biomass Group Mean (Cannabis variety A [6]; Treatment, mean of 3 specimens, control mean 87.6): 95.3 g
Total Biomass Group Mean (Cannabis variety A [6]; Treatment, mean of 3 specimens, control mean 105): 118.3 g
Flower Biomass (Cannabis variety A [6]; [7]): 98 g and 90 g
Total Biomass (Cannabis variety A [6]; [8]): 130 g and 120 g and 105 g
